Columns and labels:
Conditions in all cases: Compound concentration 10 µM
[1] = target: 5-hydroxytryptamine receptor 1E (Homo sapiens) (UniProt P28566)
Description: PDSP Primary Binding target: HTR1E - Compounds are tested at 10 uM concentration, plate are incubated at room temperature in the dark for 90 minutes. Reaction are stopped by vacuum filtration onto 0.3% polyethyleneimine soaked filter mats using Filtermate harvester. Scintilation cocktail is then melted onto microwave-dried filters on a hot plate and the radio activity is counted in Microbia counter.

[2] = target: Histamine H3 receptor (Homo sapiens) (UniProt Q9Y5N1)
Description: PDSP Primary Binding target: HRH3 - Compounds are tested at 10 uM concentration, plate are incubated at room temperature in the dark for 90 minutes. Reaction are stopped by vacuum filtration onto 0.3% polyethyleneimine soaked filter mats using Filtermate harvester. Scintilation cocktail is then melted onto microwave-dried filters on a hot plate and the radio activity is counted in Microbia counter.

[3] = target: Sigma intracellular receptor 2 (Homo sapiens) (UniProt Q5BJF2)
Description: PDSP Primary Binding target: TMEM97 - Compounds are tested at 10 uM concentration, plate are incubated at room temperature in the dark for 90 minutes. Reaction are stopped by vacuum filtration onto 0.3% polyethyleneimine soaked filter mats using Filtermate harvester. Scintilation cocktail is then melted onto microwave-dried filters on a hot plate and the radio activity is counted in Microbia counter.

[4] = target: T1, 5-hydroxytryptamine receptor 1A (Homo sapiens) (UniProt P08908)
T1 sequence (whole entry): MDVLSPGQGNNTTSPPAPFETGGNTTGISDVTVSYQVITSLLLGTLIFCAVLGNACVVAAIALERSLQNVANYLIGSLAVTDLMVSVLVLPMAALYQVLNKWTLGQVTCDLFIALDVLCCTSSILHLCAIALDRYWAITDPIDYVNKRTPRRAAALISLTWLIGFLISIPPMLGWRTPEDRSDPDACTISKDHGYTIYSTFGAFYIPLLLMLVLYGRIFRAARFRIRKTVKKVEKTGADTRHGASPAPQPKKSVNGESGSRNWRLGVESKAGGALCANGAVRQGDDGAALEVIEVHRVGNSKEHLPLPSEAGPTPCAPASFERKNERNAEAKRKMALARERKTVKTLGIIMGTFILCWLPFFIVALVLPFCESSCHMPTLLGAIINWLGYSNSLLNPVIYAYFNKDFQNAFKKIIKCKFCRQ
Description: PDSP Primary Binding target: HTR1A - Compounds are tested at 10 uM concentration, plate are incubated at room temperature in the dark for 90 minutes. Reaction are stopped by vacuum filtration onto 0.3% polyethyleneimine soaked filter mats using Filtermate harvester. Scintilation cocktail is then melted onto microwave-dried filters on a hot plate and the radio activity is counted in Microbia counter.

[5] = target: T2, 5-hydroxytryptamine receptor 2C (Homo sapiens) (UniProt P28335)
T2 sequence (whole entry): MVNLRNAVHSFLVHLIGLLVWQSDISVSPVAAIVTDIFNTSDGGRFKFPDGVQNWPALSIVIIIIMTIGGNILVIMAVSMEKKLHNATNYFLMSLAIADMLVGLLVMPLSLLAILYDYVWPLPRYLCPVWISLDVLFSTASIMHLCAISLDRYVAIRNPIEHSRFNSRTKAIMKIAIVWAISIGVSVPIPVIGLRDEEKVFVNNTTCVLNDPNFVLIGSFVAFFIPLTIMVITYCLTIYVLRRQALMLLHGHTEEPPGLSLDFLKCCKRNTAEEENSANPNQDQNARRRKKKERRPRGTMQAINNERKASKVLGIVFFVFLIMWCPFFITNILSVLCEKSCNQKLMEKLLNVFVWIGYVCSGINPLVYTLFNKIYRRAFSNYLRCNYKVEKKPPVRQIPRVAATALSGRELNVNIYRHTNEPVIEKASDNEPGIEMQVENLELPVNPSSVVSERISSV
Description: PDSP Primary Binding target: HTR2C - Compounds are tested at 10 uM concentration, plate are incubated at room temperature in the dark for 90 minutes. Reaction are stopped by vacuum filtration onto 0.3% polyethyleneimine soaked filter mats using Filtermate harvester. Scintilation cocktail is then melted onto microwave-dried filters on a hot plate and the radio activity is counted in Microbia counter.

[6] = target: D(3) dopamine receptor (Homo sapiens) (UniProt P35462)
Description: PDSP Primary Binding target: DRD3 - Compounds are tested at 10 uM concentration, plate are incubated at room temperature in the dark for 90 minutes. Reaction are stopped by vacuum filtration onto 0.3% polyethyleneimine soaked filter mats using Filtermate harvester. Scintilation cocktail is then melted onto microwave-dried filters on a hot plate and the radio activity is counted in Microbia counter.

[7] = target: D(1A) dopamine receptor (Homo sapiens) (UniProt P21728)
Chain of D(1A) dopamine receptor (Homo sapiens) (P21728 whole entry): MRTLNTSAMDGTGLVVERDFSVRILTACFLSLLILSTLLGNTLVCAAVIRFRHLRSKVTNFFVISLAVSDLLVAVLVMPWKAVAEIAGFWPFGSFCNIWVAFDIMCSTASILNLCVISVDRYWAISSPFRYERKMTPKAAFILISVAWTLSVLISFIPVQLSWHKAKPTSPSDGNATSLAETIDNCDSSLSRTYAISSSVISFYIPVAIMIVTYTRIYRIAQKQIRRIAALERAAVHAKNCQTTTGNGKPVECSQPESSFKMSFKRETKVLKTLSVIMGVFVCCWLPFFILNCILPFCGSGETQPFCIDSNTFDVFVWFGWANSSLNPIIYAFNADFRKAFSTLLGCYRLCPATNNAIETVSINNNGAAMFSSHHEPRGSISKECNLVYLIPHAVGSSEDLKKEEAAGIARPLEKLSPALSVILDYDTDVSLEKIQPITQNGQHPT
Description: PDSP Primary Binding target: DRD1 - Compounds are tested at 10 uM concentration, plate are incubated at room temperature in the dark for 90 minutes. Reaction are stopped by vacuum filtration onto 0.3% polyethyleneimine soaked filter mats using Filtermate harvester. Scintilation cocktail is then melted onto microwave-dried filters on a hot plate and the radio activity is counted in Microbia counter.

[8] = target: Sodium-dependent dopamine transporter (Homo sapiens) (UniProt Q01959)
Chain of Sodium-dependent dopamine transporter (Homo sapiens) (Q01959 whole entry): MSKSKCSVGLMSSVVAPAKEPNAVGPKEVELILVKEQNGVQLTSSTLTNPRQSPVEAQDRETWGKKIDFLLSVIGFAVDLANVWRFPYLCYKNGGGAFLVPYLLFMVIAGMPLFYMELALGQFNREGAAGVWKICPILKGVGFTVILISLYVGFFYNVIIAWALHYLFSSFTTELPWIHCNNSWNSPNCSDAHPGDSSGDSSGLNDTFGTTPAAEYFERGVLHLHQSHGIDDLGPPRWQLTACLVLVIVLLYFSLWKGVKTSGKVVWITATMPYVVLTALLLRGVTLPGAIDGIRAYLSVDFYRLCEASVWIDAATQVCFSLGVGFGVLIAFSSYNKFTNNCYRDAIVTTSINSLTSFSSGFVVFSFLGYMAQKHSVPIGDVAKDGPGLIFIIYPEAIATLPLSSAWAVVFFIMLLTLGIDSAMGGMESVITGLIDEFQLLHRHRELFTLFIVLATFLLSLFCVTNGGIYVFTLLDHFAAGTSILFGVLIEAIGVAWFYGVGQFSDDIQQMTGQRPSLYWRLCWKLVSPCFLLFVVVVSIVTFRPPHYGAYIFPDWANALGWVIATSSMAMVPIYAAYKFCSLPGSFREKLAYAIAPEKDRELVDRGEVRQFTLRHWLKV
Description: PDSP Primary Binding target: SLC6A3 - Compounds are tested at 10 uM concentration, plate are incubated at room temperature in the dark for 90 minutes. Reaction are stopped by vacuum filtration onto 0.3% polyethyleneimine soaked filter mats using Filtermate harvester. Scintilation cocktail is then melted onto microwave-dried filters on a hot plate and the radio activity is counted in Microbia counter.

[9] = target: 5-hydroxytryptamine receptor 2B (Homo sapiens) (UniProt P41595)
Chain of 5-hydroxytryptamine receptor 2B (Homo sapiens) (P41595 whole entry): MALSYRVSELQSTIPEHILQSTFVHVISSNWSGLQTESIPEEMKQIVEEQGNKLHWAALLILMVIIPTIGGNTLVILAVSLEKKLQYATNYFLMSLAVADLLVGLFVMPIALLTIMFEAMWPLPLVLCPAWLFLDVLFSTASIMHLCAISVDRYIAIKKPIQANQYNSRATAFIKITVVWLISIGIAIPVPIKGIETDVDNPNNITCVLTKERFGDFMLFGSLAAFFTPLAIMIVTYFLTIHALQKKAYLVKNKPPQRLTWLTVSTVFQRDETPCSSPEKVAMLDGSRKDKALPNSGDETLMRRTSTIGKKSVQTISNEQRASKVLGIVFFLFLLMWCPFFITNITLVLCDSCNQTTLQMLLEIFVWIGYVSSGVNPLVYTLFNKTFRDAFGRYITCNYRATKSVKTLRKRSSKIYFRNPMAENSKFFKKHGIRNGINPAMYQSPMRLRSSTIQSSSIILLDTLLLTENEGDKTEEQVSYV
Description: PDSP Primary Binding target: HTR2B - Compounds are tested at 10 uM concentration, plate are incubated at room temperature in the dark for 90 minutes. Reaction are stopped by vacuum filtration onto 0.3% polyethyleneimine soaked filter mats using Filtermate harvester. Scintilation cocktail is then melted onto microwave-dried filters on a hot plate and the radio activity is counted in Microbia counter.

[10] = target: 5-hydroxytryptamine receptor 5A (Homo sapiens) (UniProt P47898)
Chain of 5-hydroxytryptamine receptor 5A (Homo sapiens) (P47898 whole entry): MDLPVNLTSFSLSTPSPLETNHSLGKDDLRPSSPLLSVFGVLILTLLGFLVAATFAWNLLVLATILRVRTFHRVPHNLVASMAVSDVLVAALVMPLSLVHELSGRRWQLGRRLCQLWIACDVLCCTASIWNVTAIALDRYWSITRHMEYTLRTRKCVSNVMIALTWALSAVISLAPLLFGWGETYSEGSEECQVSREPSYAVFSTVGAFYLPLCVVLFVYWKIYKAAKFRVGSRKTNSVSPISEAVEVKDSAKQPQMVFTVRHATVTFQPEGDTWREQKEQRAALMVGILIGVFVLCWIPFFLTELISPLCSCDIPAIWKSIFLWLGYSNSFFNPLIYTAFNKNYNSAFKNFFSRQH
Description: PDSP Primary Binding target: HTR5A - Compounds are tested at 10 uM concentration, plate are incubated at room temperature in the dark for 90 minutes. Reaction are stopped by vacuum filtration onto 0.3% polyethyleneimine soaked filter mats using Filtermate harvester. Scintilation cocktail is then melted onto microwave-dried filters on a hot plate and the radio activity is counted in Microbia counter.

[11] = target: Sigma non-opioid intracellular receptor 1 (Homo sapiens) (UniProt Q99720)
Chain of Sigma non-opioid intracellular receptor 1 (Homo sapiens) (Q99720 whole entry): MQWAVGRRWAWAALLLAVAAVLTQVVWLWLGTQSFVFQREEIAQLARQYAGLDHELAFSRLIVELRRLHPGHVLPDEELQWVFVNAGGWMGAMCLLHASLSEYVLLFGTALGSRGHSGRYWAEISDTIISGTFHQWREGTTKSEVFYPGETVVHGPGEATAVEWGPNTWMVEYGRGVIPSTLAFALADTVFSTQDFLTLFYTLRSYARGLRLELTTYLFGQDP
Description: PDSP Primary Binding target: SIGMAR1 - Compounds are tested at 10 uM concentration, plate are incubated at room temperature in the dark for 90 minutes. Reaction are stopped by vacuum filtration onto 0.3% polyethyleneimine soaked filter mats using Filtermate harvester. Scintilation cocktail is then melted onto microwave-dried filters on a hot plate and the radio activity is counted in Microbia counter.

[12] = target: 5-hydroxytryptamine receptor 1D (Homo sapiens) (UniProt P28221)
Chain of 5-hydroxytryptamine receptor 1D (Homo sapiens) (P28221 whole entry): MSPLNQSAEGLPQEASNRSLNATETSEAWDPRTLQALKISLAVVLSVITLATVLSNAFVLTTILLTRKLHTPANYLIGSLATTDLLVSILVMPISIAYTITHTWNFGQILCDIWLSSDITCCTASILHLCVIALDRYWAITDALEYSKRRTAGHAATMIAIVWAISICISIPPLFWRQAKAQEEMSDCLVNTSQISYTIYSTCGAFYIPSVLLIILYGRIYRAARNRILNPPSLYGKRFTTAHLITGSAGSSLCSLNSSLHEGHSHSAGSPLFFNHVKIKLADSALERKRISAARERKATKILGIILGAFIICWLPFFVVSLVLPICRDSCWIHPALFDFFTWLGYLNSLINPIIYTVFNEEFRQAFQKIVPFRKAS
Description: PDSP Primary Binding target: HTR1D - Compounds are tested at 10 uM concentration, plate are incubated at room temperature in the dark for 90 minutes. Reaction are stopped by vacuum filtration onto 0.3% polyethyleneimine soaked filter mats using Filtermate harvester. Scintilation cocktail is then melted onto microwave-dried filters on a hot plate and the radio activity is counted in Microbia counter.

[13] = target: D(2) dopamine receptor (Homo sapiens) (UniProt P14416)
Chain of D(2) dopamine receptor (Homo sapiens) (P14416 whole entry): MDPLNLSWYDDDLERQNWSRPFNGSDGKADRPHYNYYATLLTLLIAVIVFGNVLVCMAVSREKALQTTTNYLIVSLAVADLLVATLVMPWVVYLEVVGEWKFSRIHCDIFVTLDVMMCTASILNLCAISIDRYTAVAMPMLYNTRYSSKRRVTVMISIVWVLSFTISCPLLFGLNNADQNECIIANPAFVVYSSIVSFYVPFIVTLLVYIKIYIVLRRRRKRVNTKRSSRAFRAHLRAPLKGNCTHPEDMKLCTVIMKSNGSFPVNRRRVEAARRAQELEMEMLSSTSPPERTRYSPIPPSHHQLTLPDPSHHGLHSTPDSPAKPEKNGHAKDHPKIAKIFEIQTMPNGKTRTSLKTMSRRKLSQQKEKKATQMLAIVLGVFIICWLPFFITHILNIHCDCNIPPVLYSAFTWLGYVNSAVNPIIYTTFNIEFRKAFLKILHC
Description: PDSP Primary Binding target: DRD2 - Compounds are tested at 10 uM concentration, plate are incubated at room temperature in the dark for 90 minutes. Reaction are stopped by vacuum filtration onto 0.3% polyethyleneimine soaked filter mats using Filtermate harvester. Scintilation cocktail is then melted onto microwave-dried filters on a hot plate and the radio activity is counted in Microbia counter.

[14] = target: 5-hydroxytryptamine receptor 1B (Homo sapiens) (UniProt P28222)
Chain of 5-hydroxytryptamine receptor 1B (Homo sapiens) (P28222 whole entry): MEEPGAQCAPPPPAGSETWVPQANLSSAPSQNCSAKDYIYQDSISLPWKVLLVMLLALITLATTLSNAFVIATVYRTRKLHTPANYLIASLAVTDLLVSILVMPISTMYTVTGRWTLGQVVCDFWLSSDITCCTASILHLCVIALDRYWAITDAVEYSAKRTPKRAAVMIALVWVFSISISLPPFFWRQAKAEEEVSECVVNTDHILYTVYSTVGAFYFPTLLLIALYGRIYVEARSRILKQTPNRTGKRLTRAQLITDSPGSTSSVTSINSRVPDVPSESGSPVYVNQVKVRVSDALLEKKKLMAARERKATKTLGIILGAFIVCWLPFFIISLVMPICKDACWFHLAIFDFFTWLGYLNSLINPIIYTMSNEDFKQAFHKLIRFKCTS
Description: PDSP Primary Binding target: HTR1B - Compounds are tested at 10 uM concentration, plate are incubated at room temperature in the dark for 90 minutes. Reaction are stopped by vacuum filtration onto 0.3% polyethyleneimine soaked filter mats using Filtermate harvester. Scintilation cocktail is then melted onto microwave-dried filters on a hot plate and the radio activity is counted in Microbia counter.

[15] = target: 5-hydroxytryptamine receptor 2A (Homo sapiens) (UniProt P28223)
Chain of 5-hydroxytryptamine receptor 2A (Homo sapiens) (P28223 whole entry): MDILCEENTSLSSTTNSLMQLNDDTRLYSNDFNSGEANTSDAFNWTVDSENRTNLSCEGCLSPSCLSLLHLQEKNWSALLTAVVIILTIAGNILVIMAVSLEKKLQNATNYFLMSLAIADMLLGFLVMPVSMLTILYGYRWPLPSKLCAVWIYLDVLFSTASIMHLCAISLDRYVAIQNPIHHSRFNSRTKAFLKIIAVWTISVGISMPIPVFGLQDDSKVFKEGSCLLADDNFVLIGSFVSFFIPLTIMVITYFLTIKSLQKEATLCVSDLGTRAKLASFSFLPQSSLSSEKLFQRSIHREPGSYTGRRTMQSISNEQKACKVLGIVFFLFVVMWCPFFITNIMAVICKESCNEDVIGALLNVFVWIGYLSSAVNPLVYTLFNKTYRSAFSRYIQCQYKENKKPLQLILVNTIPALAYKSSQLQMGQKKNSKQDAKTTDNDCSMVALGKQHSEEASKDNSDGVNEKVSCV
Description: PDSP Primary Binding target: HTR2A - Compounds are tested at 10 uM concentration, plate are incubated at room temperature in the dark for 90 minutes. Reaction are stopped by vacuum filtration onto 0.3% polyethyleneimine soaked filter mats using Filtermate harvester. Scintilation cocktail is then melted onto microwave-dried filters on a hot plate and the radio activity is counted in Microbia counter.

[16] = target: T3, Muscarinic acetylcholine receptor M1 (Homo sapiens) (UniProt P11229)
T3 sequence (whole entry): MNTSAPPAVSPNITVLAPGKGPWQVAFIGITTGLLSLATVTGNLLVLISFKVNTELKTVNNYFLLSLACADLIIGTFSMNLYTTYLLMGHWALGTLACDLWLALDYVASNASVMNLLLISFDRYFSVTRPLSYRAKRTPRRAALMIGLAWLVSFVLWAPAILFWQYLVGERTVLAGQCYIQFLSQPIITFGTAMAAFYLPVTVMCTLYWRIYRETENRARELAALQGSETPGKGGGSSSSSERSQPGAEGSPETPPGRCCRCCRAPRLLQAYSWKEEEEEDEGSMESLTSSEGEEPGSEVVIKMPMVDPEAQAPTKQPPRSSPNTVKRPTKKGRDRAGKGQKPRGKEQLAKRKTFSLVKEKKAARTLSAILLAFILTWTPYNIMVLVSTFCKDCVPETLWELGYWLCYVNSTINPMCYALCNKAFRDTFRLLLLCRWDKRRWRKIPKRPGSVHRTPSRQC
Description: PDSP Primary Binding target: CHRM1 - Compounds are tested at 10 uM concentration, plate are incubated at room temperature in the dark for 90 minutes. Reaction are stopped by vacuum filtration onto 0.3% polyethyleneimine soaked filter mats using Filtermate harvester. Scintilation cocktail is then melted onto microwave-dried filters on a hot plate and the radio activity is counted in Microbia counter.

[17] = target: T4, Alpha-1A adrenergic receptor (Homo sapiens) (UniProt P35348)
T4 sequence (whole entry): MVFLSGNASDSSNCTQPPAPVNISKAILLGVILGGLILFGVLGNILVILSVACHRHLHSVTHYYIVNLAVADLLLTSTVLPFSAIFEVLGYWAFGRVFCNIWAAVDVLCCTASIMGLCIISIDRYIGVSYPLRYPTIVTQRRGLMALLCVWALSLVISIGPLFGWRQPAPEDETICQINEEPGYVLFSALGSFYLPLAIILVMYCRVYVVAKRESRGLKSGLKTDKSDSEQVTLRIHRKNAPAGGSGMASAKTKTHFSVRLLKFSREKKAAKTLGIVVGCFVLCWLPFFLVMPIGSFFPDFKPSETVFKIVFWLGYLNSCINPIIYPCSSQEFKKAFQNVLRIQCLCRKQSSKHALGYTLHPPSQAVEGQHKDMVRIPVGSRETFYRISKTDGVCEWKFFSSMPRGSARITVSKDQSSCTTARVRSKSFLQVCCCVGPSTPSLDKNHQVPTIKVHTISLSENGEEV
Description: PDSP Primary Binding target: ADRA1A - Compounds are tested at 10 uM concentration, plate are incubated at room temperature in the dark for 90 minutes. Reaction are stopped by vacuum filtration onto 0.3% polyethyleneimine soaked filter mats using Filtermate harvester. Scintilation cocktail is then melted onto microwave-dried filters on a hot plate and the radio activity is counted in Microbia counter.

[18] = target: Mu-type opioid receptor (Homo sapiens) (UniProt P35372)
Chain of Mu-type opioid receptor (Homo sapiens) (P35372 whole entry): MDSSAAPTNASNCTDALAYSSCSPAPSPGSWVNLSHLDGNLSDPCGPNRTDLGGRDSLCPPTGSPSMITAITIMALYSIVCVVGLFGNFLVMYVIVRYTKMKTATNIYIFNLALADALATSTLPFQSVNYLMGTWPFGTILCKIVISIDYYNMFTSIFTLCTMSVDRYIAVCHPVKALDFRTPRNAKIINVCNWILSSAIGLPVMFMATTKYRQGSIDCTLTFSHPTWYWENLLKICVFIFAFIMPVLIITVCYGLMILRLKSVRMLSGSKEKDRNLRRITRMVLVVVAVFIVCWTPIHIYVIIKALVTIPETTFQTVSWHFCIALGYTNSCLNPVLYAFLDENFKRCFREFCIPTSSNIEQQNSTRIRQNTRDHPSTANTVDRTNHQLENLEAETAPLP
Description: PDSP Primary Binding target: OPRM1 - Compounds are tested at 10 uM concentration, plate are incubated at room temperature in the dark for 90 minutes. Reaction are stopped by vacuum filtration onto 0.3% polyethyleneimine soaked filter mats using Filtermate harvester. Scintilation cocktail is then melted onto microwave-dried filters on a hot plate and the radio activity is counted in Microbia counter.

Chain of Sigma intracellular receptor 2 (Homo sapiens) (Q5BJF2 whole entry): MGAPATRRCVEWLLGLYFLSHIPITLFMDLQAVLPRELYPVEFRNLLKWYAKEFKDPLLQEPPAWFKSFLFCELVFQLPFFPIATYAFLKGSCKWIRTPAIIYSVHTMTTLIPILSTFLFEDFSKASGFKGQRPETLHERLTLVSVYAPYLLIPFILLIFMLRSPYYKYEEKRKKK
Chain of 5-hydroxytryptamine receptor 1E (Homo sapiens) (P28566 whole entry): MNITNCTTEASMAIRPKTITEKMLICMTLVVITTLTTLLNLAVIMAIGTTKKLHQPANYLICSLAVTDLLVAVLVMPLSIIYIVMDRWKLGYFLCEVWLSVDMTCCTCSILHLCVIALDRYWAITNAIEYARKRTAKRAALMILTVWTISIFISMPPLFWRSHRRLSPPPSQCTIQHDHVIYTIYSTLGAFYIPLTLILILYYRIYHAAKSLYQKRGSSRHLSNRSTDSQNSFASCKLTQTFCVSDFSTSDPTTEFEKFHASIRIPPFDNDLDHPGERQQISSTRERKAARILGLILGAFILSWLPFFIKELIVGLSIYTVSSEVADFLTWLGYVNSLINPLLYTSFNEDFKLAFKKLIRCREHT

Row | SMILES | inhibition [1] | inhibition [2] | inhibition [3] | inhibition [4] | inhibition [5] | inhibition [6] | inhibition [7] | inhibition [8] | inhibition [9] | inhibition [10] | inhibition [11] | inhibition [12] | inhibition [13] | inhibition [14] | inhibition [15] | inhibition [16] | inhibition [17] | inhibition [18]
1 | N#Cc1c(O)nc(SCc2cccc(F)c2F)nc1C1CC1 | -5.94% | 18.8% | 8.9% | -4.01% | -5.1% | 2.3% | -8.29% | 45.1% | 9.1% | 8.42% | 18.2% | 38.9% | -6.52% | -9.63% | -3.85% | -6.12% |  | 
2 | CC(C)NC(=O)c1ccc(C#Cc2ccncc2)cn1 | -1.26% |  | 8.09% |  |  | 26.8% |  | 24.2% | 34.4% |  | 68.4% |  | -3.71% |  | 4.54% | -0.6% | -5.19% | 0.15%
3 | CCOC(=O)c1cc(C#N)c(N2CCC(C(=O)NS(=O)(=O)Cc3ccccc3)CC2)nc1C | -8.79% | 15% | 4.45% |  | 6.09% | 50.8% | 0.26% | 32.9% |  | -2.81% | 44.3% |  | 13.7% |  | 5.11% |  | 33.7% | 4.87%
4 | O=C(O)Cn1c(C(=O)Nc2nc(-c3ccccc3Cl)cs2)cc2ccccc21 | 3.11% | -1.46% | 36.6% | -8.88% | 12.4% | 7.11% | -2.06% | 47.6% | 0.94% | 18.6% | 9.14% | 38.3% | 14.1% | 11.2% |  | 6.86% |  | 8.9%
5 | C[C@]1(C(=O)N(CCCC(=O)O)Cc2cccc(Cl)c2)CCN1C(=O)c1csc2ccccc12 | -8.85% | -8.42% | -7.28% |  |  | 29% | -1.97% | 13% | -7.25% | -1.31% | 32.5% |  | -7.68% |  | 5.34% | 5.11% | -4.07% | 
6 | O=C1O[C@]2(CC[C@H](C(=O)Nc3ccn(-c4ccccc4F)n3)CC2)c2cnccc21 | 5.31% | 2.41% | -5.33% | 19.7% | 18.3% | 73.2% |  |  | 17.5% |  | 4.97% |  | 10.1% | -3.32% | 22.2% | -6% |  | 4.44%
7 | O=C(O)COc1cccc(CN(Cc2ccc(-n3cccn3)cc2)S(=O)(=O)c2cccnc2)c1 | 14.9% | 6.23% | 4.27% | -0.9% | 29.9% | 5.78% |  |  | 5.26% |  | 5.04% |  | 7.85% | 12.1% | 15.6% | 3.45% | -1.12% | -4.37%
8 | O=C1N/C(=N/c2ccccc2F)S/C1=C\c1ccc(C(=O)O)cc1 | 4.25% | -4.18% | 33.9% | 2.18% |  | 5.3% |  | 33.1% | -3.68% |  | 17.9% | 19% | 0.9% | -8.69% | -0.36% | 17.1% | -2.85% | 56%
9 | CC1=C2C[C@H]3[C@@H](CC=C4C[C@@H](O)CC[C@@]43C)[C@@H]2CC[C@]12O[C@@H]1C[C@H](C)CN[C@H]1[C@H]2C | 6.19% | 32.2% | 91.8% | 9.39% |  | 19.6% | -4.8% |  |  |  | 10.2% |  | 13.2% |  | 4.16% | 22.8% |  | 10.4%

Reference: ChEMBL document CHEMBL5442219
